Literature values in patent US7501136B2, “Deodorant composition” (Kao Corporation, priority 2003, dated 2009).

Test system: Staphylococcus aureus
Details: against Staphylococcus aureus

SMILES: Cc1cc(O)ccc1C(C)C [isopropyl methylphenol]
- MIC (Minimum Inhibitory Concentration): 0.015%
